Test system: TFG-MET allograft tumors
Experiment: RNA-sequencing, differential expression and GSEA of TFG-MET allograft tumors
Type: in vivo, mouse
Settings: GSEA CAP vs Veh, C5 GO CC
Procedure: Error bars display standard error of mean, statistical significance was determined using t-test analysis. (****;p<0.0001, ***;p<0.001, **;p<0.01, *;p<0.05). […] Each dot represents an individual replicate. Error bars display standard error of the mean.
Each dot represents one gene.

CNC(=O)c1ccc(-c2cnc3ncc(Cc4ccc5ncccc5c4)n3n2)cc1F [Capmatinib]
NES GOCC_TRANSFERASE_COMPLEX (padj 2.19055e-16): -1.9384 | NES GOCC_NUCLEAR_SPECK (padj 5.1503e-15): -2.161 | NES GOCC_SPLICEOSOMAL_COMPLEX (padj 1.72395e-14): -2.415 | NES GOCC_CHROMOSOME_TELOMERIC_REGION (padj 7.63768e-14): -2.533 | NES GOCC_VACUOLAR_MEMBRANE (padj 7.95066e-13): 2.04 | NES GOCC_SMALL_SUBUNIT_PROCESSOME (padj 1.82971e-12): -2.75 | NES GOCC_NUCLEAR_PORE (padj 1.03541e-11): -2.588 | NES GOCC_FIBRILLAR_CENTER (padj 1.07393e-11): -2.424 | NES GOCC_CHROMATIN (padj 1.91271e-11): -1.714 | NES GOCC_PRERIBOSOME_LARGE_SUBUNIT_PRECURSOR (padj 2.94795e-11): -2.651 | NES GOCC_METHYLTRANSFERASE_COMPLEX (padj 4.53721e-11): -2.484 | NES GOCC_NUCLEAR_CHROMOSOME (padj 7.98955e-11): -2.219 | NES GOCC_RESPIRATORY_CHAIN_COMPLEX (padj 1.33777e-10): 2.821 | NES GOCC_NUCLEAR_PERIPHERY (padj 2.5338e-10): -2.3519 | NES GOCC_NUCLEAR_ENVELOPE (padj 3.91151e-9): -1.852 | NES GOCC_RIBONUCLEOPROTEIN_GRANULE (padj 4.48536e-8): -2.04 | NES GOCC_CATALYTIC_STEP_2_SPLICEOSOME (padj 5.62031e-8): -2.31 | NES GOCC_INTRACELLULAR_PROTEIN_CONTAINING_COMPLEX (padj 6.31135e-8): -1.665 | NES GOCC_TRANSCRIPTION_REGULATOR_COMPLEX (padj 7.03454e-8): -1.873 | NES GOCC_CAJAL_BODY (padj 7.11025e-8): -2.347 | NES GOCC_U2_TYPE_SPLICEOSOMAL_COMPLEX (padj 1.20627e-7): -2.187 | NES GOCC_CILIUM (padj 1.31956e-7): 1.633 | NES GOCC_CONDENSED_CHROMOSOME (padj 1.56303e-7): -2.04 | NES GOCC_IMMUNOGLOBULIN_COMPLEX (padj 1.76109e-7): 2.5876 | NES GOCC_CHROMOSOME_CENTROMERIC_REGION (padj 2.31902e-7): -2.023 | NES GOCC_TRANSFERASE_COMPLEX_TRANSFERRING_PHOSPHORUS_CONTAINING_GROUPS (padj 2.54822e-7): -1.9355 | NES GOCC_MOTILE_CILIUM (padj 6.10966e-7): 2.148 | NES GOCC_INNER_MITOCHONDRIAL_MEMBRANE_PROTEIN_COMPLEX (padj 1.03286e-6): 2.0966 | NES GOCC_HISTONE_METHYLTRANSFERASE_COMPLEX (padj 1.09294e-6): -2.238 | NES GOCC_TERTIARY_GRANULE (padj 1.29564e-6): 2.058 | NES GOCC_NUCLEAR_MEMBRANE (padj 1.93407e-6): -1.855 | NES GOCC_NADH_DEHYDROGENASE_COMPLEX (padj 2.62751e-6): 2.526 | NES GOCC_SM_LIKE_PROTEIN_FAMILY_COMPLEX (padj 3.06538e-6): -2.133 | NES GOCC_LATE_ENDOSOME_MEMBRANE (padj 3.31031e-6): 2.097 | NES GOCC_RNA_POLYMERASE_COMPLEX (padj 3.74343e-6): -2.068 | NES GOCC_HETEROCHROMATIN (padj 4.96006e-6): -2.172 | NES GOCC_PROTEIN_ACETYLTRANSFERASE_COMPLEX (padj 5.11894e-6): -2.115 | NES GOCC_CYTOPLASMIC_STRESS_GRANULE (padj 1.16359e-5): -2.152 | NES GOCC_VACUOLAR_LUMEN (padj 1.16897e-5): 1.934 | NES GOCC_SECRETORY_GRANULE_MEMBRANE (padj 1.40276e-5): 1.763 | NES GOCC_OXIDOREDUCTASE_COMPLEX (padj 1.71689e-5): 2.0601 | NES GOCC_EXTERNAL_SIDE_OF_PLASMA_MEMBRANE (padj 2.05111e-5): 1.72 | NES GOCC_CONDENSED_CHROMOSOME_CENTROMERIC_REGION (padj 2.22571e-5): -1.979 | NES GOCC_SNO_S_RNA_CONTAINING_RIBONUCLEOPROTEIN_COMPLEX (padj 3.58719e-5): -2.2 | NES GOCC_PHAGOCYTIC_VESICLE (padj 3.73055e-5): 1.9159 | NES GOCC_HOST_CELLULAR_COMPONENT (padj 4.79591e-5): -2.0648 | NES GOCC_SITE_OF_DNA_DAMAGE (padj 6.26347e-5): -2.003 | NES GOCC_AZUROPHIL_GRANULE (padj 6.43287e-5): 1.861 | NES GOCC_KINETOCHORE (padj 6.63265e-5): -1.897 | NES GOCC_AUTOPHAGOSOME (padj 6.99707e-5): 2.034 | NES GOCC_RNA_POLYMERASE_II_TRANSCRIPTION_REGULATOR_COMPLEX (padj 0.000108731): -1.813 | NES GOCC_PML_BODY (padj 0.000125034): -1.9697 | NES GOCC_EXORIBONUCLEASE_COMPLEX (padj 0.000154107): -2.113 | NES GOCC_ENDORIBONUCLEASE_COMPLEX (padj 0.000165343): -2.09 | NES GOCC_SMALL_NUCLEAR_RIBONUCLEOPROTEIN_COMPLEX (padj 0.000179714): -2.0229 | NES GOCC_IMMUNOGLOBULIN_COMPLEX_CIRCULATING (padj 0.000186482): 2.324 | NES GOCC_TERTIARY_GRANULE_MEMBRANE (padj 0.000272562): 2.004 | NES GOCC_VESICLE_LUMEN (padj 0.000275827): 1.602 | NES GOCC_LYSOSOMAL_LUMEN (padj 0.000331136): 1.858 | NES GOCC_REPLICATION_FORK (padj 0.000358866): -1.947 | NES GOCC_PRECATALYTIC_SPLICEOSOME (padj 0.000460788): -1.97 | NES GOCC_EUCHROMATIN (padj 0.000526361): -2.018 | NES GOCC_FICOLIN_1_RICH_GRANULE_MEMBRANE (padj 0.000558545): 2.085 | NES GOCC_CYTOCHROME_COMPLEX (padj 0.000649179): 2.153 | NES GOCC_PROTEIN_DNA_COMPLEX (padj 0.000678026): -1.836 | NES GOCC_SITE_OF_DOUBLE_STRAND_BREAK (padj 0.000757696): -1.897 | NES GOCC_PROTON_TRANSPORTING_TWO_SECTOR_ATPASE_COMPLEX (padj 0.000783651): 2.098 | NES GOCC_SPECIFIC_GRANULE (padj 0.000783651): 1.663 | NES GOCC_MLL1_2_COMPLEX (padj 0.000871379): -2.023 | NES GOCC_RESPIRATORY_CHAIN_COMPLEX_IV (padj 0.000871379): 2.188 | NES GOCC_CILIARY_TRANSITION_ZONE (padj 0.000882106): 1.976 | NES GOCC_BLOOD_MICROPARTICLE (padj 0.000959119): 1.774 | NES GOCC_PHAGOCYTIC_VESICLE_MEMBRANE (padj 0.00129051): 1.86 | NES GOCC_SECONDARY_LYSOSOME (padj 0.00130287): 2.219 | NES GOCC_TRANSCRIPTION_ELONGATION_FACTOR_COMPLEX (padj 0.00152226): -1.897 | NES GOCC_NUCLEAR_REPLICATION_FORK (padj 0.00173594): -1.935 | NES GOCC_TELOMERASE_HOLOENZYME_COMPLEX (padj 0.00174948): -1.978 | NES GOCC_H4_HISTONE_ACETYLTRANSFERASE_COMPLEX (padj 0.00185976): -1.863 | NES GOCC_CILIARY_PLASM (padj 0.00189918): 1.756 | NES GOCC_POLYSOME (padj 0.00219768): -1.796 | NES GOCC_PCG_PROTEIN_COMPLEX (padj 0.00279919): -1.842 | NES GOCC_T_CELL_RECEPTOR_COMPLEX (padj 0.00319727): 2.053 | NES GOCC_U2_TYPE_CATALYTIC_STEP_2_SPLICEOSOME (padj 0.00319727): -1.927 | NES GOCC_SIDE_OF_MEMBRANE (padj 0.00331543): 1.318 | NES GOCC_AZUROPHIL_GRANULE_LUMEN (padj 0.00386407): 1.725 | NES GOCC_EUKARYOTIC_TRANSLATION_INITIATION_FACTOR_3_COMPLEX (padj 0.00386407): -1.892 | NES GOCC_PROTON_TRANSPORTING_TWO_SECTOR_ATPASE_COMPLEX_PROTON_TRANSPORTING_DOMAIN (padj 0.00392051): 2.029 | NES GOCC_SYNAPTIC_VESICLE_MEMBRANE (padj 0.00392051): 1.708 | NES GOCC_SMN_SM_PROTEIN_COMPLEX (padj 0.00460194): -1.879 | NES GOCC_MHC_PROTEIN_COMPLEX (padj 0.00465351): 2.03 | NES GOCC_PLASMA_MEMBRANE_BOUNDED_CELL_PROJECTION_CYTOPLASM (padj 0.00477082): 1.5011 | NES GOCC_TRANSLATION_PREINITIATION_COMPLEX (padj 0.00477082): -1.882 | NES GOCC_9PLUS2_MOTILE_CILIUM (padj 0.00505147): 1.741 | NES GOCC_FICOLIN_1_RICH_GRANULE (padj 0.00518961): 1.502 | NES GOCC_ENDOSOME_MEMBRANE (padj 0.00609112): 1.2787 | NES GOCC_PRESPLICEOSOME (padj 0.00659701): -1.8326 | NES GOCC_ATPASE_COMPLEX (padj 0.007008): -1.657 | NES GOCC_ENDOLYSOSOME (padj 0.00786364): 1.964 | NES GOCC_EUKARYOTIC_48S_PREINITIATION_COMPLEX (padj 0.00886352): -1.849 | NES GOCC_PHAGOPHORE_ASSEMBLY_SITE (padj 0.00895831): 1.892 | NES GOCC_INTRACILIARY_TRANSPORT_PARTICLE (padj 0.00906928): 1.972 | NES GOCC_TRANSCRIPTION_REPRESSOR_COMPLEX (padj 0.00954254): -1.652
